# Data published in US20250163057A1, “DCN-1 MODULATING COMPOUNDS AND METHODS OF USE THEREOF” (Cellarity, Inc., priority 2023, published 2025).
# Read-outs that look alike come from different tables or passages of the source.
# Biological target: DCN1 (DCUND1) protein PONY domain (Homo sapiens (Human), UniProt Q96GG9)
# Test: TR-FRET assay, DCN1 binding with FAM-labeled probe
# Experimental: A TR-FRET assay was performed to evaluate the ability of the compounds to bind the DCN-1 protein.
# The TR-FRET assay was designed following the Scott et al. protocol (Scott et al., Nat Chem Biol. 2017 August; 13(8): 850-857. Doi:10.1038/nchembio.2386). The recombinant form of the DCN1 (DCUND1) protein PONY domain was produced using an E. coli expression system at Viva Biotech (China). The DCN1 protein was biotinylated (EZ sulfo-NHS-LC-biotin; Thermofisher) for labeling with streptavidin terbium (Tb) cryptate in the reaction. The probe was changed to a non-covalent DCN1 inhibitor labeled with carboxyfluorescein (FAM; Zhou et al., Nat Commun. 2017; 8: 1150. Doi: 10.1038/s41467-017-01243-7). Buffer conditions were modified to enhance protein stability by exchanging Tween20 for TritonX and increasing NaCl to 200 mM. The compounds were screened against 5 nM DCN1 and 20 nM FAM-probe or 0.31 nM DCN1 and 900 nM total probe (100 nM FAM-labeled plus 800 nM unlabeled). The TR-FRET ratio between Tb-DCN1 and the FAM-labeled probe was measured in a 384-well opti-plate (Perkin Elmer) using a plate reader (BMG) at 1, 5, and 24 hrs after treatment with compound (final DMSO concentration of 0.1%).
# [1] = 24 hr after treatment with compound, read-out: TR FRET IC50 24 hr
# [2] = TR FRET IC50 1 hr (nM), 1 hr after treatment with compound
# DCN1 (DCUND1) protein PONY domain, sequence (Q96GG9 60-248): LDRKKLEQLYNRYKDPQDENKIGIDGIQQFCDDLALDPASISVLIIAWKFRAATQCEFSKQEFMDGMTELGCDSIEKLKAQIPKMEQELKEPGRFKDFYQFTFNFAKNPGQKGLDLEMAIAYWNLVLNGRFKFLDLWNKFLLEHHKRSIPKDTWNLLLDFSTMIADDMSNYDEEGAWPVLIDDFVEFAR
structure (smiles),measurement,setting,value
"CCN1C(=O)[C@@H](NC(=O)c2cccc(C(F)(F)F)c2)[C@@H](c2ccc(F)cc2)c2c(CC/C=C\C(=O)O)nn(-c3ccccc3)c21 (racemic) [Compound I-126, rac-(Z)-5-((4R,5R)-7-ethyl-4-(4-fluorophenyl)-6-oxo-1-phenyl-5-(3-(trifluoromethyl)benzamido)-4,5,6,7-tetrahydro-1H-pyrazolo[3,4-b]pyridin-3-yl)pent-2-enoic acid]",IC50,[1],200 to 1000 nM
same,IC50,[2],200 to 1000 nM
"CCN1C(=O)[C@@H](NC(=O)c2cccc(C(F)(F)F)c2)[C@@H](c2ccc(F)cc2)c2c(CC/C=C/C(=O)OC)nn(-c3ccccc3)c21 (racemic) [Compound I-128, rac-methyl (E)-5-((4R,5R)-7-ethyl-4-(4-fluorophenyl)-6-oxo-1-phenyl-5-(3-(trifluoromethyl)benzamido)-4,5,6,7-tetrahydro-1H-pyrazolo[3,4-b]pyridin-3-yl)pent-2-enoate]",IC50,[1],200 to 1000 nM
same,IC50,[2],1000 to 3000 nM
"CCN1C(=O)[C@@H](NC(=O)c2cccc(C(F)(F)F)c2)[C@@H](c2ccc(F)cc2)c2c(CC/C=C/C(=O)O)nn(-c3ccccc3)c21 (racemic) [Compound I-134, rac-(E)-5-((4R,5R)-7-ethyl-4-(4-fluorophenyl)-6-oxo-1-phenyl-5-(3-(trifluoromethyl)benzamido)-4,5,6,7-tetrahydro-1H-pyrazolo[3,4-b]pyridin-3-yl)pent-2-enoic acid]",IC50,[1],200 to 1000 nM
same,IC50,[2],200 to 1000 nM
CCN1C(=O)[C@@H](NC(=O)c2cccc(C(F)(F)F)c2)[C@@H](c2ccc(F)cc2)c2c(CC/C=C\C(N)=O)nn(-c3ccccc3)c21 (racemic) [Compound I-142],IC50,[1],200 to 1000 nM
same,IC50,[2],200 to 1000 nM
"CCN1C(=O)[C@@H](NC(=O)c2cccc(C(F)(F)F)c2)[C@@H](c2ccc(F)cc2)c2c(C(C)(C)NC#N)nn(-c3ccccc3)c21 (racemic) [Compound I-144, rac-N-((4R,5R)-3-(2-cyanamidopropan-2-yl)-7-ethyl-4-(4-fluorophenyl)-6-oxo-1-phenyl-4,5,6,7-tetrahydro-1H-pyrazolo[3,4-b]pyridin-5-yl)-3-(trifluoromethyl)benzamide]",IC50,[1],200 to 1000 nM
same,IC50,[2],1000 to 3000 nM
CCN1C(=O)[C@@H](NC(=O)c2cccc(C(F)(F)F)c2)[C@@H](c2ccc(F)cc2)c2c(CN(C)C(=O)C(F)Cl)nn(-c3ccccc3)c21 (mixture of isomers) [Compound I-145],IC50,[1],200 to 1000 nM
same,IC50,[2],200 to 1000 nM
"C=C(C(=O)OC(C)(C)C)[C@@H](O)c1nn(-c2ccccc2)c2c1[C@H](c1ccc(F)cc1)[C@H](NC(=O)c1cccc(C(F)(F)F)c1)C(=O)N2CC (racemic) [Compound I-146, rac-tert-butyl 2-(((4R,5R)-7-ethyl-4-(4-fluorophenyl)-6-oxo-1-phenyl-5-(3-(trifluoromethyl)benzamido)-4,5,6,7-tetrahydro-1H-pyrazolo[3,4-b]pyridin-3-yl)(hydroxy)methyl)acrylate]",IC50,[1],200 to 1000 nM
same,IC50,[2],1000 to 3000 nM
"CCN1C(=O)[C@@H](NC(=O)c2cccc(C(F)(F)F)c2)[C@@H](c2ccc(F)cc2)c2c(CNC(=O)/C=C/C(=O)NCCN(C)C)nn(-c3ccccc3)c21 (racemic) [Compound I-154, rac-N1-(2-(dimethylamino)ethyl)-N4-(((4R,5R)-7-ethyl-4-(4-fluorophenyl)-6-oxo-1-phenyl-5-(3-(trifluoromethyl)benzamido)-4,5,6,7-tetrahydro-1H-pyrazolo[3,4-b]pyridine-3-yl)methyl)fumaramide]",IC50,[1],≤ 200 nM
same,IC50,[2],200 to 1000 nM
CCN1C(=O)[C@@H](NC(=O)c2cccc(C(F)(F)F)c2)[C@@H](c2ccc(F)cc2)c2c(CNC(=O)/C(C)=C/C(=O)OC)nn(-c3ccccc3)c21 (racemic) [Compound I-155],IC50,[1],200 to 1000 nM
same,IC50,[2],1000 to 3000 nM
C/C=C(\C)S(=O)(=O)NCc1nn(-c2ccccc2)c2c1[C@H](c1ccc(F)cc1)[C@H](NC(=O)c1cccc(C(F)(F)F)c1)C(=O)N2CC (racemic) [Compound I-159],IC50,[1],200 to 1000 nM
same,IC50,[2],1000 to 3000 nM
